The record followed here is patent US20230365592A1 (Agios Pharmaceuticals, Inc., priority 2022, published 2023).

What is called AC50 is the midpoint of the concentration-response curve, whichever way the signal moves.

SMILES strings stand for the structures.

The first assay concerns the target T1, human PAH with the R408W mutation (Homo sapiens, UniProt P00439, R408W).
T1 construct: expressed in transfected cells
T1 sequence (P00439 1-452 R408W): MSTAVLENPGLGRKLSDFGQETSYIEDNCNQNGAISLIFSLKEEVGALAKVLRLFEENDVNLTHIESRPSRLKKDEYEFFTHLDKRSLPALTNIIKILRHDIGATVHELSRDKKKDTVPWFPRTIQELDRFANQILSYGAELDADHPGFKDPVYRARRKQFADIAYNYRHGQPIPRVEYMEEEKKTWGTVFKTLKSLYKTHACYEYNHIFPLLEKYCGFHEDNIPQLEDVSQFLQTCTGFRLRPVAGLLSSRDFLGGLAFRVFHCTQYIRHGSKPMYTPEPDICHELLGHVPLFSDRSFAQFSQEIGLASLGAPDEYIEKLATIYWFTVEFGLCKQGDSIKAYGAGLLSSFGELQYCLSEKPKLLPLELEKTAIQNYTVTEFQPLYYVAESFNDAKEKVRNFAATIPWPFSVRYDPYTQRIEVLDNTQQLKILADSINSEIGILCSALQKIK
The assay is described as follows: Cell Based Phenylalanine Flux Assay.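 Also: after compound treatment, cells received sepiapterin plus isotope-labelled Phenylalanine for 4 hours, then labelled Tyrosine in the medium was quantified, 10-point 2-fold dilution series run in duplicate.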 Particulars: A375 cells expressing R408W PAH; 24 hrs with compound, then 20 µM sepiapterin and 800 µM 13C9,15N-Phenylalanine for 4 hours; 13C-Tyrosine by LC-MS; average where tested multiple times; read-out: AC50.
Consider `Cc1cccn2nc(C3c4nc[nH]c4CCN3C(=O)c3ccn(-c4ccccn4)n3)cc12` (stereo not drawn), for which the AC50 fell in the range of 1000 to 5000 nM.

Turning to `O=C(c1cnco1)N1CCc2[nH]cnc2C1c1cc2ccc(C(F)(F)F)cn2n1` (stereo not drawn), the AC50 was 1000 to 5000 nM.

As for `Cc1c(C2c3nc[nH]c3CCN2C(=O)c2nnc(C3CC3)o2)nn2ccccc12` (stereo not drawn), the AC50 lay within 1000 to 5000 nM.

Take `CN(C)CCc1ccc2c(C(=O)N3CCc4[nH]cnc4C3c3cc4cccc(C(F)(F)F)n4n3)cnn2c1` (stereo not drawn): the AC50 is greater than 5000 nM.

With `Cn1ccc(-c2nnc(C(=O)N3CCc4[nH]cnc4C3c3cc4c(OC(F)F)cccn4n3)o2)n1` (stereo not drawn), the AC50 was greater than 5000 nM.

As for `Cc1cccc2cc(C3c4nc[nH]c4CCN3C(=O)c3cnn4cc(C5CC5)ccc34)nn12` (stereo not drawn), the AC50 fell in the range of 1000 to 5000 nM.

On to `Clc1cccc2cc(C3c4nc[nH]c4CCN3c3nnc(C4CC4)o3)nn12` (stereo not drawn), for which the AC50 is 1000 to 5000 nM.

Regarding `O=C(c1ncco1)N1CCc2[nH]cnc2C1c1cc2ccccn2n1` (stereo not drawn), the AC50 is 1000 to 5000 nM.

Still in this assay, the particulars now being: A375 cells expressing human PAH R408W; 24 hrs compound incubation; 13C-Tyrosine by LC-MS; average where tested multiple times; read-out: AC50.
Consider `CC(C)(C)c1nnc(C(=O)N2CCc3[nH]cnc3[C@@H]2c2cc3c(C4CC4)cccn3n2)o1` [Example 1841, (R)-(5-(tert-butyl)-1,3,4-oxadiazol-2-yl)(4-(4-cyclopropylpyrazolo[1,5-a]pyridin-2-yl)-1,4,6,7-tetrahydro-5H-imidazo[4,5-c]pyridin-5-yl)methanone], for which the AC50 is greater than 5000 nM.

With `Cn1ccc(-c2nnc(C(=O)N3CCc4[nH]cnc4[C@H]3c3cc4c(Br)cccn4n3)o2)n1` [Example 1889, (S)-(4-(4-bromopyrazolo[1,5-a]pyridin-2-yl)-1,4,6,7-tetrahydro-5H-imidazo[4,5-c]pyridin-5-yl)(5-(1-methyl-1H-pyrazol-3-yl)-1,3,4-oxadiazol-2-yl)methanone], the AC50 was less than 500 nM.

With `Fc1ccc(-c2nnc(N3CCc4[nH]cnc4[C@H]3c3cc4cccc(C(F)F)n4n3)o2)cc1` [Example 2131, (S)-2-(4-(7-(difluoromethyl)pyrazolo[1,5-a]pyridin-2-yl)-1,4,6,7-tetrahydro-5H-imidazo[4,5-c]pyridin-5-yl)-5-(4-fluorophenyl)-1,3,4-oxadiazole], the AC50 was less than 500 nM.

With `CC(C)(C)c1nnc(C(=O)N2CCc3[nH]cnc3[C@H]2c2cc3cccc(C(F)(F)F)n3n2)o1` [Example 2409, (S)-(5-(tert-butyl)-1,3,4-oxadiazol-2-yl)(4-(7-(trifluoromethyl)pyrazolo[1,5-a]pyridin-2-yl)-6,7-dihydro-1H-imidazo[4,5-c]pyridin-5(4H)-yl)methanone], the AC50 lay within 1000 to 5000 nM.

As to `CC(O)c1nc(Cl)c(C(=O)N2CCc3[nH]cnc3[C@H]2c2cc3ccccn3n2)o1` (single isomer, unassigned) [Example 2377], the AC50 is 1000 to 5000 nM.

On to `CC(C)(F)c1nnc(C(=O)N2CCc3[nH]cnc3[C@H]2c2cc3ccc(C(F)(F)F)cn3n2)o1` [Example 2420, (S)-(5-(2-fluoropropan-2-yl)-1,3,4-oxadiazol-2-yl)(4-(6-(trifluoromethyl)pyrazolo[1,5-a]pyridin-2-yl)-6,7-dihydro-1H-imidazo[4,5-c]pyridin-5(4H)-yl)methanone], for which the AC50 lay within 1000 to 5000 nM.

Consider `Cc1cccn2nc([C@@H]3c4nc[nH]c4CCN3c3nnc(C(C)C)o3)cc12` [Example 2303, (S)-2-isopropyl-5-(4-(4-methylpyrazolo[1,5-a]pyridin-2-yl)-1,4,6,7-tetrahydro-5H-imidazo[4,5-c]pyridin-5-yl)-1,3,4-oxadiazole], for which the AC50 is less than 500 nM.

Turning to `c1ccc(N2CCc3[nH]cnc3[C@@H]2c2cc3ccccn3n2)nc1` [Example 1815, (R)-4-(pyrazolo[1,5-a]pyridin-2-yl)-5-(pyridin-2-yl)-4,5,6,7-tetrahydro-1H-imidazo[4,5-c]pyridine], the AC50 is greater than 5000 nM.

Still in this assay, the particulars now being: A375 cells expressing human R408W PAH; 24 hrs compound incubation; 13C-Tyrosine by LC-MS; average where tested multiple times; read-out: AC50.
In the case of `O=C(c1nnc(-c2cnn(C(F)(F)F)c2)o1)N1CCc2[nH]cnc2[C@H]1c1cc2c(C(F)(F)F)cccn2n1` [Example 1538, (S)-(5-(1-(trifluoromethyl)-1H-pyrazol-4-yl)-1,3,4-oxadiazol-2-yl)(4-(4-(trifluoromethyl)pyrazolo[1,5-a]pyridin-2-yl)-6,7-dihydro-1H-imidazo[4,5-c]pyridin-5(4H)-yl)methanone], the AC50 was in the range of 500 to 1000 nM.

Turning to `CC(C)(C)c1nnc(C(=O)N2CCc3[nH]cnc3[C@H]2c2cc3c(F)cccn3n2)o1` [Example 1027, (S)-(5-(tert-butyl)-1,3,4-oxadiazol-2-yl)(4-(4-fluoropyrazolo[1,5-a]pyridin-2-yl)-6,7-dihydro-1H-imidazo[4,5-c]pyridin-5(4H)-yl)methanone], the AC50 is less than 500 nM.

On to `O=C(c1nnc(-c2cnn(C(F)(F)F)c2)o1)N1CCc2[nH]cnc2[C@@H]1c1cc2cccc(C(F)F)n2n1` [Example 1503, (R)-(4-(7-(difluoromethyl)pyrazolo[1,5-a]pyridin-2-yl)-6,7-dihydro-1H-imidazo-[4,5-c]pyridin-5(4H)-yl)(5-(1-(trifluoromethyl)-1H-pyrazol-4-yl)-1,3,4-oxadiazol-2-yl)methanone], for which the AC50 was greater than 5000 nM.

In the case of `O=C(c1nnc(-c2ccn(C(F)(F)F)n2)o1)N1CCc2[nH]cnc2[C@H]1c1cc2ccccn2n1` [Example 1506, (S)-(4-(pyrazolo[1,5-a]pyridin-2-yl)-6,7-dihydro-1H-imidazo[4,5-c]pyridin-5(4H)-yl)(5-(1-(trifluoromethyl)-1H-pyrazol-3-yl)-1,3,4-oxadiazol-2-yl)methanone], the concentration at half-maximal activity (AC50) is less than 500 nM.

`O=C(c1ocnc1C(F)(F)F)N1CCc2[nH]cnc2[C@H]1c1cc2c(F)cccn2n1` [Example 772, (S)-(4-(4-fluoropyrazolo[1,5-a]pyridin-2-yl)-6,7-dihydro-1H-imidazo[4,5-c]pyridin-5(4H)-yl)(4-(trifluoromethyl)oxazol-5-yl)methanone]: the AC50 was less than 500 nM.

As for `O=C(c1nnc(-c2ccn(C(F)(F)F)n2)o1)N1CCc2[nH]cnc2[C@H]1c1cc2c(C(F)(F)F)cccn2n1` [Example 1512, (S)-(5-(1-(trifluoromethyl)-1H-pyrazol-3-yl)-1,3,4-oxadiazol-2-yl)(4-(4-(trifluoromethyl)pyrazolo[1,5-a]pyridin-2-yl)-6,7-dihydro-1H-imidazo[4,5-c]pyridin-5(4H)-yl)methanone], the AC50 is less than 500 nM.

Consider `Cc1cccc(-c2nnc(C(=O)N3CCc4[nH]cnc4[C@@H]3c3cc4cccc(C)n4n3)o2)n1` [Example 1399, (R)-(4-(7-methylpyrazolo[1,5-a]pyridin-2-yl)-6,7-dihydro-1H-imidazo[4,5-c]pyridin-5(4H)-yl)(5-(6-methylpyridin-2-yl)-1,3,4-oxadiazol-2-yl)methanone], for which the concentration at half-maximal activity (AC50) was in the range of 1000 to 5000 nM.

With `COc1cccn2nc([C@H]3c4nc[nH]c4CCN3C(=O)c3nnc(-c4ccn(C(F)(F)F)n4)o3)cc12` [Example 1653, (R)-(4-(4-methoxypyrazolo[1,5-a]pyridin-2-yl)-6,7-dihydro-1H-imidazo[4,5-c]pyridin-5(4H)-yl)(5-(1-(trifluoromethyl)-1H-pyrazol-3-yl)-1,3,4-oxadiazol-2-yl)methanone], the AC50 was greater than 5000 nM.

As for `Fc1cccn2nc([C@@H]3c4nc[nH]c4CCN3c3nnc(-c4ccccn4)o3)cc12` [Example 1613, (S)-2-(4-(4-fluoropyrazolo[1,5-a]pyridin-2-yl)-6,7-dihydro-1H-imidazo[4,5-c]pyridin-5(4H)-yl)-5-(pyridin-2-yl)-1,3,4-oxadiazole], the AC50 was less than 500 nM.

On to `Cn1cc(-c2nnc(C(=O)N3CCc4[nH]cnc4[C@@H]3c3cc4c(C(F)(F)F)cccn4n3)o2)cn1` [Example 829, (R)-(5-(1-methyl-1H-pyrazol-4-yl)-1,3,4-oxadiazol-2-yl)(4-(4-(trifluoromethyl)pyrazolo[1,5-a]pyridin-2-yl)-6,7-dihydro-1H-imidazo[4,5-c]pyridin-5(4H)-yl)methanone], for which the AC50 was greater than 5000 nM.

In the case of `O=C(c1nnc(N2CCC(F)CC2)o1)N1CCc2[nH]cnc2[C@@H]1c1cc2c(F)cccn2n1` [Example 1015, (R)-(5-(4-fluoropiperidin-1-yl)-1,3,4-oxadiazol-2-yl)(4-(4-fluoropyrazolo[1,5-a]pyridin-2-yl)-6,7-dihydro-1H-imidazo[4,5-c]pyridin-5(4H)-yl)methanone], the AC50 was greater than 5000 nM.

Consider `Cn1cc(-c2nnc(C(=O)N3CCc4[nH]cnc4[C@@H]3c3cc4c(C(F)F)cccn4n3)o2)cn1` [Example 1317, (R)-(4-(4-(difluoromethyl)pyrazolo[1,5-a]pyridin-2-yl)-6,7-dihydro-1H-imidazo[4,5-c]pyridin-5(4H)-yl)(5-(1-methyl-1H-pyrazol-4-yl)-1,3,4-oxadiazol-2-yl)methanone], for which the AC50 was 1000 to 5000 nM.

Consider `O=C(c1nnc(-c2cnn(C(F)F)c2)o1)N1CCc2[nH]cnc2[C@@H]1c1cc2c(C(F)F)cccn2n1` [Example 1375, (R)-(5-(1-(difluoromethyl)-1H-pyrazol-4-yl)-1,3,4-oxadiazol-2-yl)(4-(4-(difluoromethyl)pyrazolo[1,5-a]pyridin-2-yl)-6,7-dihydro-1H-imidazo[4,5-c]pyridin-5(4H)-yl)methanone], for which the AC50 is greater than 5000 nM.

With `O=C(c1nnc(-c2cnccn2)o1)N1CCc2[nH]cnc2[C@@H]1c1cc2c(C(F)(F)F)cccn2n1` [Example 1301, (R)-(5-(pyrazin-2-yl)-1,3,4-oxadiazol-2-yl)(4-(4-(trifluoromethyl)pyrazolo[1,5-a]pyridin-2-yl)-6,7-dihydro-1H-imidazo[4,5-c]pyridin-5(4H)-yl)methanone], the AC50 is greater than 5000 nM.
